Experimental data taken from patent US8367733B2 (Vallinex, Inc., priority 2002, dated 2013).
Where two headings read alike, the source gives them in different places.

Columns and labels:
[1] = more potent than capsaicin; cited from earlier work
[2] = test system: subjects undergoing transpositional osteotomy (bunionectomy) for hallux valgus deformity; experiment: Bunionectomy efficacy study (Phase II), intra-operative infiltration into the wound; format: in vivo, human; conditions: for VAS pain score at operation site (Table 4): 1000 μg into wound, mean +/− SEM, n = 11
Experimental: The primary efficacy endpoint was the proportion of subjects in each treatment group requiring opioid analgesia in the first 24 hours post-operatively. The proportions were compared amongst treatment groups using the Cochran-Haenszel test. Secondary efficacy end points included: i) proportion of subjects in each treatment group requiring opioid analgesia in the first 36 hour period post-operatively (Similarly, the proportions were compared amongst treatment groups using the Cochran-Haenszel test); ii) proportion of subjects in each treatment group requiring opioid analgesia in the 10 day period post-operatively (Similarly, the proportions were compared amongst treatment groups using the Cochran-Haenszel test); iii) time to first usage of opioid analgesia in each treatment group (a survival analysis approach will be used: the product-limit (Kaplan-Meier) method will be applied to time to first usage of opioid analgesia. The median time to first usage of opioid analgesia will be estimated in both treatment groups. Pairwise comparisons will be performed to test for equality of the survival curves between the 2 treatment groups using both the log-rank and the Wilcoxon test); iv) total usage of analgesia in each treatment group (the total usage of analgesia will be compared by an analysis of variance with treatment and center as independent variables. A pairwise comparison will be performed between the treatment groups); and v) VAS assessment of pain at the site of operation in each treatment group (The VAS score at each time point will be compared by an analysis of variance with treatment and center as independent variables. A pairwise comparison will be performed between the treatment groups). […] The efficacy analysis was performed on the data obtained ten days postoperatively. The safety analysis was performed based on the safety data for the entire study, including the 6 week and 12 week follow-up periods. The blind was broken at the time the efficacy analysis was performed. However, the individual treatment assignment was available to the statistical analysis group only. All other personnel involved in the study, including the Investigator, study monitor and proprietary staff, remained blinded until the entire study was completed.
The study was designed to include 40 evaluation subjects. […] Each subject had six (6) study visits: a Screening Day (Day −28 to −1), an Operation Day (Day 0), and four (4) Follow-up visits (scheduled for Days 3, 10 and weeks 6 and 12).
On Operation Day (Day 0) the following was performed: a) Pre-operation: Prior to the initiation of an ankle block, inclusion/exclusion criteria assessment was performed. […] Immediately prior to wound closure, the Investigator slowly dripped the study medication (4 mL) from a syringe into the wound, ensuring even tissue exposure. The wound was then closed according to normal practices and procedures.
In the 24 hours following administration of study medication, vital signs (supine pulse rate and blood pressure) were recorded at 1, 2, 4 and 24 hours post administration. VAS assessment of pain at the operation site was performed at 1, 4, 8, 12 and 24 hours post administration. In those instances where VAS measurements coincide with blood sampling procedures, the VAS assessment was performed first. […] The quantity of each blood sample was 10 mL. Laboratory safety assessments, e.g., haematology, biochemistry, urinalysis were performed at 24 hours post administration. Adverse events were spontaneously reported by the subject and recorded. Rescue analgesia medication was provided to the subject if required (initially diclofenac 50 mg, repeated at 8 hourly intervals if necessary).

[3] = test system: radiation induced hyperalgesia; conditions: systemic, cited from earlier work
[4] = test system: subjects with osteoarthritis of the knee; experiment: Osteoarthritis of the knee safety study (Phase 1): safety, tolerability and VAS pain after intra-articular infiltration; format: in vivo, human; conditions: for patients reporting transient burning pain immediately following instillation: after 2% lignocaine
Experimental: The primary objective of the study was to evaluate the safety and tolerability of intra-articular capsaicin, when co-administered with intra-articular local anesthetic, compared to placebo, in subjects with end-stage osteoarthritis of the knee, already scheduled to receive knee replacements.
Study drug was stored at a temperature between 15° C. and 25° C.
The study was designed to include 16 evaluation subjects. […] Sixteen subjects completed the study.
Patients were treated randomly and in double-blind fashion in four treatment cohorts, with each cohort having a progressively longer interval between the intra-articular administration of study medication and subsequent total knee replacement (2, 4, 7, and 14 days). […] Gross and microscopic pathology analysis was completed for each treatment cohort before the next treatment coort was treated.
Each subject had 3 study visits: a Screening Day (Day −7 to −1), the Treatment Day (Day 0), and a Post-Treatment Day (scheduled for Day +2, +4, +7, or +14). On the Treatment Day the subject was randomized, pre-treatment evaluation was performed. The patients were brought into the procedure room, and a VAS pain score was taken (0 mm—no pain, 100 mm—extreme pain). Once the patient had marked his or her pain on the card, he/she was prepped for knee cannulation. Once the cannula was placed, the patient received by intra-articular infiltration, 3 mg/kg (maximum dose of 200 mg) of 2% lignocaine into the knee scheduled to be replaced.
VAS pain scores as well as verbal reports were taken immediately following administration, as well as prior to knee replacement surgery. No subjects discontinued from the study due to adverse events.
On the Post-Treatment Day, study evaluation was performed followed by the scheduled knee replacement, with intra-operative bone and soft tissue biopsies performed for subsequent examination. […] This therefore left the 3 placebo and 9 active patients from the 4 day, 7 day, and 14 day cohorts.

[5] = cited from earlier work
[6] = 10, 100, 300 μg intra-articular

For `C=C(C)[C@]12C[C@@H](C)[C@@]34O[C@](Cc5ccccc5)(O[C@@H]1[C@@H]3C=C(COC(=O)Cc1ccc(O)c(OC)c1)C[C@]1(O)C(=O)C(C)=C[C@@H]41)O2` [Resiniferatoxin, resiniferatoxin], the “potency compared with capsaicin” value [1] is given as 10^3-10^4 fold.

For `COc1cc(CNC(=O)CCCC/C=C/C(C)C)ccc1O` [purified capsaicin, N-(4-hydroxy-3-methoxybenzyl)-8-methylnon-trans-6-enamide], the “effect on pain score and use of rescue” value ([2]; 1000 μg into the wound prior to wound closure) was “reduced both pain score as well as the use of rescue”, the “VAS pain score at operation site (Table 4)” value (“VAS pain score” below) ([2]; 8 hr) was 5.5 +/− 2.3 and the “VAS pain score” value ([2]; 12 hr) was 8.2 +/− 3.8. For the same compound, the “VAS pain score” value ([2]; 24 hr) was 1.9 +/− 1.0, the “VAS pain score” value ([2]; 48 hr) was 5.9 +/− 2.5 and the “study subjects requiring rescue” value ([2]; 1000 μg prior to wound closure, within 72 hours, n=11, P<0.05 vs placebo) was 40%. The radiation induced hyperalgesia ([3]; final doses of 25 mg/kg or less prior to ultra violet radiation) was “prevented radiation induced hyperalgesia”, the pain threshold ([3]; final doses of 25 mg/kg or less) was “did not elevate the pain threshold above normal range” and the pain threshold ([3]; final doses of 50 mg/kg or greater) was “pain threshold elevated”. For the same compound, the “patients reporting transient burning pain immediately following instillation” value ([4]; 10 μg intra-articular) was 0 of 4, the “subjects requiring intervention for post-injection (hyper)algesia” value ([4]; 100 μg dose group (n=4)) was 1 subject and the “patients reporting transient burning pain immediately following instillation” value ([4]; 100 μg intra-articular) was 1 of 4. For the same compound, the “subjects requiring intervention for post-injection (hyper)algesia” value ([4]; 300 μg dose group (n=4)) was 4 subjects, the “patients reporting transient burning pain immediately following instillation” value ([4]; 300 μg intra-articular) was 4 of 4 and the “VAS reduced, prior to administration vs day of surgery” value ([4]; 9 active patients of the 4, 7 and 14 day cohorts, doses 10-300 μg pooled) was 62±14%. The “effects on laboratory safety parameters or vital signs” value [4, 6] was “no treatment related effects”, the “effects on soft tissue, cartilage, or bone upon histopathological examination” value [4, 6] was “no treatment related effects” and the “gross and microscopic pathology” value [4, 6] was “normal”. For the same compound, the “signs of erythema, edema, or hemorrhage at the site of injection” value [4, 6] was “no treatment related signs”, the systemic side effects [4, 6] was “No treatment related systemic side effects were seen” and the tolerability [4, 6] was “well tolerated at all dose levels”. For the same compound, the “median decrease from baseline to pre-operative time point in VAS for pain at the target knee, compared with placebo” value ([4]; all 3 capsaicin dose groups) was “substantially greater”, the “average duration of post injection hyperalgesia” value ([4]; all cases) was “less than thirty minutes” and the “onset of post-administration (hyper)algesia after administration” value ([4]; all episodes, 100 μg and 300 μg) was ≤ 5 min. The “indication of efficacy on VAS pain” value ([4]; any of the dose levels (10 μg, 100 μg, 300 μg)) was “No clear treatment related indication of efficacy” and the “solubility in alcohol, ether, benzene and chloroform” value [5] was “freely soluble”.
